Measurements published in US7147866B2, “UV-absorbing lipid vesicles” (Galaxy Surfactants Limited, priority 2004, dated 2006).

What was measured:
[1] = Molar extinction coefficient (UV absorption) in methanol; type: physicochemical; conditions: at λmax 305 nm in methanol
[2] = system: hairless skin of inner side of forearm; test: Photoprotection on human forearm skin exposed to midday sun; melanin content and erythema levels by Mexameter-18; type: in vivo; conditions: liposomal vs non-vesicle aqueous suspension
Procedure: Liposomal dispersion composition (200 mg of 5.0% dispersion) of p-methoxy cinnamidopropyldimethylbehenyl ammonium tosylate and a cream preparation containing octyl methoxy cinnamate (200 mg of cream containing 5% OMC) are applied on hairless skin of inner side of forearm (36 cm^2). The forearms are exposed to midday sun for 15 minutes. The melanin content and erythema levels have been measured by Mexameter-18 (Courage+Khazakha, gmbh, Germany) before and after the exposure.

[3] = Vesicle formation and stability of aqueous dispersion; type: physicochemical
Text: However, this short duration of stability of aqueous suspension is sufficient for conducting the photoprotection experiment.

Structure (SMILES) | Molar extinction coefficient, ε [1] | Photoprotection efficacy compared with p-methoxy cinnamidopropyl dimethyllauryl ammonium tosylate suspension [2] | Stability of dispersion in water ([3]; aqueous suspension) | Vesicle formation ([3]; lipid by itself in water)
CCCCCCCCCCCCCCCCCCCCCC[N+](C)(C)CCCNC(=O)c1ccc(N(C)C)cc1.Cc1ccc(S(=O)(=O)[O-])cc1 [p-N,N-dimethylamine benzamidopropyldimethylbehenyl ammonium tosylate] | 22,200 | – | – | –
CCCCCCCCCCCCCCCCCCCCCC[N+](C)(C)CCCNC(=O)C=Cc1ccc(OC)cc1.Cc1ccc(S(=O)(=O)[O-])cc1 [p-methoxy cinnamidopropyldimethylbehenyl ammonium tosylate] | 23,000 | much more superior in protecting skin | – | –
CCCCCCCCCCCC[N+](C)(C)CCCNC(=O)C=Cc1ccc(OC)cc1.Cc1ccc(S(=O)(=O)[O-])cc1 [p-methoxy cinnamidopropyl dimethyllauryl ammonium tosylate] | – | – | unstable dispersion in water | does not form vesicles
